# In ChEMBL document CHEMBL1821551, “From fragment screening to in vivo efficacy: optimization of a series of 2-aminoquinolines as potent inhibitors of beta-site amyloid precursor protein cleaving enzyme 1 (BACE1)” (J Med Chem, 2011):
# Tested on: human MDR1 (P-gp)
# Assay: in vitro
# Conditions: pig, LLC-PK1
row,SMILES,Papp [×10⁻⁶ cm/s]
1,Cc1ccccc1-c1ccc2nc(N)c(C[C@@H](C)C(=O)NCc3ccccc3)cc2c1,6.5
2,Cc1ccccc1-c1ccc2nc(N)c(CC(C)C(=O)NCc3cncs3)cc2c1 (racemic),12
3,Cc1ccccc1-c1ccc2nc(N)c(CC(C)C(=O)NCc3cccnc3)cc2c1 (racemic),16
